{"source": "patent US20200179488A1", "about": "“Secretin Receptor Agonists to Treat Diseases or Disorders of Energy Homeostasis” (Technische Universität München, priority 2016, published 2020)", "key": {"[1]": {"test_system": "primary brown adipocytes from UCP1 knockout mice", "assay": "Microplate respirometry (oxygen consumption rate) in primary brown adipocytes from UCP1 knockout mice", "format": "cell-based, Mus musculus", "method": "For culturing primary adipocytes male 129S1/SvImJ mice ([…] or UCP1-KO mice and wildtype littermates) at the age of 5-6 weeks were used for the dissection of inguinal and epidydimal white adipose tissue and interscapular brown adipose tissue depots. The tissue was carefully minced and treated with collagenase for 45 min at 37° C. The homogenate was filtered through a 250 μm nylon mesh and centrifuged at 500 g to collect the stromal vascular fraction (SVF). The SVF cell pellet was rinsed and seeded into XF96 V3-PS cell culture microplate (Seahorse Bioscience). After reaching confluency, induction medium containing 10% fetal bovine serum (FBS), 0.5 mM isobutylmethylxanthine, 125 nM indomethacin, 1 mM dexamethasone, 850 nM insulin and 1 nM T3 was added. After 2 days of induction, cells were maintained in differentiation media (10% FBS, 850 nM insulin and 1 nM T3). Medium was changed every two days. Respiration was measured on day 7 of differentiation. For determination of mRNA levels cells were stimulated at the 7th day of differentiation for 6 hours with secretin (rat, Tocris, Art Nr 1919) or isoproterenol (Sigma-Aldrich, Art Nr. 16504-100MG) and harvested subsequently. Oxygen consumption rate (OCR) was measured at 37° C. using a microplate respirometer (XF96 extracellular flux analyzer, Seahorse Bioscience). At day 7, the differentiation medium was replaced with prewarmed, unbuffered assay medium (DMEM basal medium supplemented with 25 mM glucose, 2 mM sodium pyruvate, 31 mM NaCl, 2 mM GlutaMax and 15 mg/l phenol red, pH 7.4) containing 2% of essentially fatty acid free bovine serum albumin (BSA), and incubated at 37° C. in a room air incubator for 1 h. Basal respiration was measured in untreated cells. […] Maximum respiratory capacity was assessed after FCCP (Sigma-Aldrich) addition (1 μM). […] Oxygen consumption rates were calculated using the Seahorse XF-96 software. […] For induction of OCR by isoproterenol, secretin or FCCP the highest values measured after addition of the respective molecule was used. The “OCR in % of basal OCR” and “OCR in % of FCCP OCR” were calculated as follows: Method: To test whether SCT can activate thermogenesis in brown adipocytes, we measured UCP1-mediated uncoupled respiration in cultured adherent intact primary brown adipocytes, according to a protocol recently established in our lab (Li Y, Fromme T, Schweizer S, Schöttl T, Klingenspor M. EMBO Rep. 2014 October; 15(10):1069-76. doi: 10.15252/embr.201438775; […]. Meaningful respirometric measurements of UCP1-mediated thermogenesis. Biochimie. 2017 March; 134:56-61. doi: 10.1016/j.biochi.2016.12.005.). The cellular oxygen consumption rate (OCR) of primary adipocytes was determined using an XF96 Extracellular Flux Analyzer (Seahorse Bioscience). […]"}, "fasted mice": {"test_system": "fasted mice", "assay": "Food intake on refeeding of fasted wildtype mice", "format": "in vivo, Mus musculus", "conditions": "mice fasted 18 h, 5 nmol i.p. before refeeding, p=0.0181 (FIG. 7)", "method": "For the measurement of food intake, a feeding-drinking-activity (FDA) device was used (TSE Systems, Bad Homburg/Germany). During the measurement mice were single-housed in type-III cages. Mice were habituated to the new cage environment and received every morning at 10 a.m. a single daily intraperitoneal (i.p.) PBS-injection for four days ahead of the experiment start. The body weight of the mice was measured every day. On day four day of habituation the food was removed from the cages at 5 p.m., and the mice were food deprived over night with ad libitum access to water. On the next morning, mice were i.p. injected with either PBS as control or secretin (rat, Tocris, Art Nr 1919). The latter was given in different doses. Subsequently the mice were refed ad libitum while monitoring food intake during the following 72 hours. […] Food intake was calculated from the decrease in feeder weight. The results were exported into a spreadsheet calculation table (Excel, Microsoft) and analyzed with a software package for statistics and graphics (GraphPad Prism 4.0, GraphPad Software, San Diego, USA).\nNext to thermogenesis, brown fat has been proposed to function in the thermoregulatory control of feeding. […] Just before refeeding, mice were intra-peritoneally injected with 5 nmol secretin solved in PBS, or PBS as the vehicle control, and food intake was monitored for the following three days."}}}
{"substance": "secretin", "values": [{"measurement": "induction of respiration in cells from UCP1 knockout mice", "setting": "[1]; 129/S1 background, FIG. 3", "result": "lacking"}, {"measurement": "response of respiration in UCP1 knockout brown adipocytes", "setting": "[1]; SCT 10 nM, ISO 500 nM (FIG. 10B)", "result": "did not respond"}, {"measurement": "food intake during the first two hours of refeeding versus PBS", "setting": "fasted mice", "result": "significant inhibition of food intake"}]}
